# Patent US7795208B2, “Methods of using deacetylase inhibitors to promote cell differentiation and regeneration” (The Salk Institute for Biological Study, priority 2001, dated 2010)
# Values joined by “and” are separate entries in the source; they are usually repeats but may differ in a detail not shown here. Equal entries are not always repeated.
# Test system: mouse embryos
# Assay: Embryos of pregnant MLC1/3F-nLacZ mice exposed in utero (somitogenesis, muscle gene expression)
# Type: in vivo
# [1] = i.p. to pregnant mice at E 8.5, sacrificed at 10.5, 0.5 to 1 mg/Kg TSA, 200 mg/Kg VPA
# [2] = treated at E 8.5, sacrificed at E 9.5
smiles,measurement,setting,value
"CC(/C=C/C(=O)NO)=C\[C@@H](C)C(=O)c1ccc(N(C)C)cc1 [TSA, trichostatin A]",level of MLC-lacZ transgene expression,"E 10.5 embryos, vs control embryos",higher level of MLC-lacZ transgene expression
same,# somites (β-galactosidase staining),"MLC1/3F-nLacZ mice injected at day 8.5, sacrificed at day 10.5, TSA [1 mg/ml] (20 ul + 380 ul PBS), VPA 155 mM, one value per embryo, PBS controls 25-32",32 and 37 and 34 and 36 and 33
same,Notch transcripts,animals exposed to a DI,increased
same,levels of MHC in exposed embryos (Western blot),extracts of total embryos,augmented the levels of MHC
same,number of MLC expressing somites,[1],consistently increased
same,number of MyoD expressing myotomes,[1],consistently increased
same,acetylation of histone H4 in embryos,[2],increased acetylation of histone H4
same,embryo size vs control embryos,[2],modestly and consistently larger than control embryos
same,increase in number of somites vs control embryos,[2],+2 to +6
same,number of somites expressing Myf-5,[2],increased
